Assays:
[1] = target: T1, human ERα (Homo sapiens, UniProt P03372); experiment: ERα competitive binding assay (recombinant human ERα); settings: FIG. 5B
T1 construct: purified full-length recombinant human ERα (Life Technologies, Grand Island, N.Y.); purchased Life Technologies
T1 sequence (P03372 1-595): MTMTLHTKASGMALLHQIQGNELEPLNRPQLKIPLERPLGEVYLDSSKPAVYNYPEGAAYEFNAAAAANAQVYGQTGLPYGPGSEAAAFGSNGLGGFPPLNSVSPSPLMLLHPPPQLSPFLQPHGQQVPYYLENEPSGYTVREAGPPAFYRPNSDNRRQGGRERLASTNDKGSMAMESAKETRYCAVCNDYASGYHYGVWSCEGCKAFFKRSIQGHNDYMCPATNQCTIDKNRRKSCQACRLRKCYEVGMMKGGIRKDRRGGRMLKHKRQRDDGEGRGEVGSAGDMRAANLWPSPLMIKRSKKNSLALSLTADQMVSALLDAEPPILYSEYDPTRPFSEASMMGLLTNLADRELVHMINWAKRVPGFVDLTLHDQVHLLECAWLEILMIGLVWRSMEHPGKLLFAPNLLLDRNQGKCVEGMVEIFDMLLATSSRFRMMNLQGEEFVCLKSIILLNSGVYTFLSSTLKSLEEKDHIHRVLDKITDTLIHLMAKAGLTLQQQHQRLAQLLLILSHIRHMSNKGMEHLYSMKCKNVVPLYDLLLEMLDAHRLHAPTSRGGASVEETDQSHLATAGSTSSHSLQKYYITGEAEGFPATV
Procedure: (§1) Non-specific binding was determined by incubation with an excess of cold estradiol (1 μM). After an overnight incubation at 4° C., 100 μl of cold 50% hydroxyapatite slurry was added to bind the receptor/ligand complex. After 15 minutes, 1 mL of wash buffer (40 mM Tris, 1 mM EDTA, 1 mM EGTA, 100 mM KCl, pH 7.4) was added and the tubes were centrifuged at 4500 rpm for 5 minutes at 4° C. The washing step was repeated twice. The radioactivity of the pellet was extracted by incubation with 1 mL of ethanol for 1 h at room temperature.
as §1, with “A competitive binding assay using a purified full-length recombinant human ERα (Life Technologies, Grand Island, N.Y.). […] Non-specific” for “Non-specific”, “E2” for “cold estradiol”, “μL” for “μl”

[2] = test system: T-47D tumors; experiment: Inhibition of E1-stimulated T-47D tumor growth in nude OVX mice (xenograft); format: in vivo, mouse
Procedure: Female OVX BALB/c athymic nude mice weighing approximately 20 g were obtained from Charles-River, Inc. (St-Constant, Qc., Canada). The animals were housed 5 per cage. […] T-47D tumor growth was stimulated using 0.1 μg of E1 s.c. per mouse per day for 15 days. From day 16, animals with tumors were randomized in function of tumor volume and separated into three groups. Group 1 (control mice) was treated s.c. with 100 μL of vehicle alone (8% EtOH/92% PG) per mouse per day. Group 2 (E1 0.1 μg) was treated with E1 (0.1 μg/day, s.c. per mouse) during 32 days. Group 3 (E1 0.1 μg+Compound V 250 μg) was treated with E1 (0.1 μg/day) and Compound V (250 μg/day) per mouse in a combined s.c. injection for 32 days. The mice were weighed at start and volumes of tumors were determined by external caliper twice a week and the greatest longitudinal diameter (length) and the greatest transverse diameter (width) were determined. Tumor volume based on caliper measurements was calculated by the modified ellipsoidal formula: Tumor volume=½(length×width^2) (Jensen M M, Jorgensen J T, Binderup T, Kjaer A. Tumor volume in subcutaneous mouse xenografts measured by microCT is more accurate and reproducible than determined by 18F-FDG-microPET or external caliper. BMC Med Imaging 2008; 8:16). At the end of the studies the mice were terminally anaesthetized, final body weights and tumor sizes were determined. Uteri and vagina were removed, excised of fat and weighed (Day J M, Foster P A, Tutill H J, Parsons M F, Newman S P, Chander S K, et al. 17beta-hydroxysteroid dehydrogenase type 1, and not type 12, is a target for endocrine therapy of hormone-dependent breast cancer. Int J Cancer 2008; 122:1931-40; Husen B, Huhtinen K, Poutanen M, Kangas L, Messinger J, Thole H. Evaluation of inhibitors for 17beta-hydroxysteroid dehydrogenase type 1 in vivo in immunodeficient mice inoculated with MCF-7 cells stably expressing the recombinant human enzyme. Mol Cell Endocrinol 2006; 248:109-13; Husen B, Huhtinen K, Saloniemi T, Messinger J, Thole H H, Poutanen M: Human hydroxysteroid (17-beta) dehydrogenase 1 expression enhances estrogen sensitivity of MCF-7 breast cancer cell xenografts. Endocrinology 2006; 147:5333-9; Messinger J, Hirvela L, Husen B, Kangas L, Koskimies P, Pentikainen O, et al. New inhibitors of 17beta-hydroxysteroid dehydrogenase type 1. Mol Cell Endocrinol 2006; 248:192-8).

[3] = test system: T-47D cells; experiment: Inhibition of E1-stimulated T-47D cell proliferation; format: cell-based, human; settings: control 100%
Procedure: (§2) Quantification of cell growth was determined by using CellTiter 96®Aqueous Solution Cell Proliferation Assay (Promega, Nepean, ON, Canada) following the manufacturer's instructions. T-47D cells were resuspended with the medium supplemented with insulin (50 ng/mL) and 5% dextran-coated charcoal treated FBS rather than 10% FBS to remove remaining hormones. Aliquots (100 μL) of the cell suspension were seeded in 96-well plates (3000 cells/well). After 48 h, the medium was changed with a new one containing an appropriate concentration of products to be tested and was replaced every 2 days. Cells have grown either in absence or presence of the compounds for 7 days. To determine the proliferative (estrogenic) activity, the estrogen-sensitive T-47D cells were grown in absence (basal cell proliferation was fixed as 100%) or presence of compounds to be tested at 0.5 to 10 μM. The potent estrogen E2 was used as a reference control. […] The cell proliferation without E1±inhibitor (control) was fixed as 100%. To determine the potential antiestrogenic activity of inhibitor Compound V, the T-47D (ER^+) cells were grown in the presence of estrogen E2 (0.1 nM) and pure antiestrogen EM-139 (0.5 μM) or inhibitor Compound V (0.5 μM). The cell proliferation without E2 and tested compounds (control) were fixed as 100%.

[4] = test system: T-47D cells; experiment: Antiestrogenic activity, E2-induced T-47D proliferation; format: cell-based, human; settings: E2 0.1 nM, compound 0.5 μM
Procedure: as §2

[5] = test system: T-47D cells; experiment: Estrogenic (proliferative) activity on T-47D (ER+) cell line; format: cell-based, human; settings: 0.5, 1, 2.5 and 5 μM, 7 days
Procedure: as §2

With `C[C@]12CC[C@@H]3c4ccc(O)cc4CC[C@H]3[C@@H]1C[C@H](Cc1cccc(C(N)=O)c1)[C@@H]2O` [Compound I, 16β-(m-carbamoylbenzyl)estradiol, reference compound] the “relative binding affinity (RBA)” value [1] was 1.5%.

With `C[C@]12CC[C@@H]3c4ccc(CCBr)cc4CC[C@H]3[C@@H]1C[C@H](Cc1cccc(C(N)=O)c1)[C@@H]2O` [Compound V, 3-{[(16β,17β)-3-(2-bromoethyl)-17-hydroxyestra-1(10),2,4-trien-16-yl]methyl}benzamide] the toxicity ([2]; 250 μg/day/mouse (s.c.), 32 days) was “no apparent toxicity”, the “effect on mouse weight” value ([2]; 32-day treatment period) was “no effect” and the “growth of E1-stimulated tumors inhibited (%)” value ([2]; E1 0.1 μg/day + Compound V 250 μg/day s.c., 32 days) was 74%. For the same compound, the “effect on E1-stimulated uterine and vaginal weight” value ([2]; E1 0.1 μg/day + Compound V 250 μg/day, 32 days) was “had no effect on the E1-stimulated uterine and vaginal weight increase”, the “cell growth, E1-induced” value ([3]; E1 0.1 nM + inhibitor 2.5 μM) was 156% and the “cell growth, E1-induced” value ([3]; E1 0.1 nM + inhibitor 5 μM) was 125%. For the same compound, the “antiestrogenic activity (reversal of E2-induced proliferation)” value [4] was “does not reverse the proliferative effect” and the “estrogenic (proliferative) activity on T-47D cells” value [5] was “not estrogenic at any concentration tested”.
